Literature values in patent publication US20130085177A1, “COSMETIC COMPOSITION BASED ON ELLAGIC ACID OR A DERIVATIVE THEREOF AND ON A PARTICULAR MIXTURE OF SURFACTANTS” (priority 2010, published 2013).

O=c1oc2c(O)c(O)cc3c(=O)oc4c(O)c(O)cc1c4c23 [ellagic acid, 2,3,7,8-tetrahydroxy(1)benzo-pyrano(5,4,3-cde)(1)benzopyran-5,10-dione]
solubility in water and in the solvents and oils commonly used in cosmetic compositions: very low
